In patent US12498382B2, “Biomarkers for vitiligo” (INCYTE CORPORATION, priority 2019, dated 2025):

System: HaCaT cells
Assay: Concentrations of inflammatory mediators produced by HaCaT cells stimulated with TNFα and IFNγ in presence/absence of JAK inhibitors (ProCarta)
Assay type: cell-based, human
Conditions: TNFα 25 ng/mL + IFNγ 25 ng/mL
Method in brief: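 Mediator levels (pg/mL) in culture media quantified by multiplex Luminex bead assay against standard curves. Media collected after 24 h at 37 °C from HaCaT cells exposed to 25 ng/mL each of IFNγ and TNFα following 15 min drug pre-incubation; drug final concentrations 25–200 nM (25, 50, 100, 200 nM).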

N#CCC1(n2cc(-c3ncnc4[nH]ccc34)cn2)CN(C2CCN(C(=O)c3ccnc(C(F)(F)F)c3F)CC2)C1 [Cpc B]
BDNF concentration (drug 25 nM): 4.05 ± 0.19 pg/mL
EGF concentration (drug 25 nM): 1.76 ± 0.17 pg/mL
Eotaxin concentration (drug 25 nM): 10.22 ± 0.15 pg/mL
FGF-2 concentration (drug 25 nM): 20.63 ± 1.49 pg/mL
GM-CSF concentration (drug 25 nM): 130.13 ± 2.13 pg/mL
GRO alpha concentration (drug 25 nM): 547.38 ± 31.41 pg/mL
HGF concentration (drug 25 nM): 14.15 ± 0.3 pg/mL
IFN alpha concentration (drug 25 nM): 0.24 ± 0.02 pg/mL
IFN gamma concentration (drug 25 nM): 35023.68 ± 10759.49 pg/mL
IL1RA concentration (drug 25 nM): 5944.59 ± 264.97 pg/mL
IL1 alpha concentration (drug 25 nM): 7.34 ± 0.31 pg/mL
IL1 beta concentration (drug 25 nM): 9.53 ± 0.3 pg/mL
IL2 concentration (drug 25 nM): 33.62 ± 1.88 pg/mL
IL4 concentration (drug 25 nM): 6.74 ± 1.65 pg/mL
IL5 concentration (drug 25 nM): 27.31 ± 1.32 pg/mL
IL6 concentration (drug 25 nM): 749.64 ± 32.94 pg/mL
IL7 concentration (drug 25 nM): 2.14 ± 0.12 pg/mL
IL8 concentration (drug 25 nM): 2837.03 ± 135.03 pg/mL
IL9 concentration (drug 25 nM): 4.55 ± 0.85 pg/mL
IL10 concentration (drug 25 nM): 0.87 ± 0.06 pg/mL
IL12p70 concentration (drug 25 nM): 2.01 ± 0.21 pg/mL
IL13 concentration (drug 25 nM): 2.79 ± 0.33 pg/mL
IL15 concentration (drug 25 nM): 3.3 ± 0.93 pg/mL
IL17A concentration (drug 25 nM): 4.6 ± 0.5 pg/mL
IL18 concentration (drug 25 nM): 162.16 ± 4.98 pg/mL
IL21 concentration (drug 25 nM): 2.66 ± 0.22 pg/mL
IL22 concentration (drug 25 nM): 8.69 ± 0.42 pg/mL
IL23 concentration (drug 25 nM): 7.28 ± 0.16 pg/mL
IL27 concentration (drug 25 nM): 8.03 ± 1.71 pg/mL
IL31 concentration (drug 25 nM): 3.6 ± 0.28 pg/mL
IP-10/CXCL10 concentration (drug 25 nM): 4068.98 ± 507.12 pg/mL
LIF concentration (drug 25 nM): 68.82 ± 2.51 pg/mL
MCP1 concentration (drug 25 nM): 29762.04 ± 13226.23 pg/mL
MIP1 alpha concentration (drug 25 nM): 103.81 ± 3.29 pg/mL
MIP1 beta concentration (drug 25 nM): 319.77 ± 6.92 pg/mL
PDGF-BB concentration (drug 25 nM): 5.19 ± 0.15 pg/mL
PIGF-1 concentration (drug 25 nM): 56.69 ± 2.37 pg/mL
RANTES concentration (drug 25 nM): 203.77 ± 12.55 pg/mL
SCF concentration (drug 25 nM): 4.33 ± 0.18 pg/mL
SDF-1 alpha concentration (drug 25 nM): 3430.87 ± 111.52 pg/mL
TNF alpha concentration (drug 25 nM): 10574.99 ± 753.02 pg/mL
TNF beta concentration (drug 25 nM): 4.91 ± 0.79 pg/mL
VEGF-A concentration (drug 25 nM): 1249.75 ± 44.89 pg/mL
VEGF-D concentration (drug 25 nM): 9.22 ± 0.87 pg/mL
bNGF concentration (drug 25 nM): 7.7 ± 0.55 pg/mL
BDNF concentration (drug 50 nM): 4.04 ± 0.24 pg/mL
EGF concentration (drug 50 nM): 1.67 ± 0.15 pg/mL
Eotaxin concentration (drug 50 nM): 9.92 ± 0.2 pg/mL
FGF-2 concentration (drug 50 nM): 19.94 ± 1.49 pg/mL
GM-CSF concentration (drug 50 nM): 128.05 ± 2.9 pg/mL
GRO alpha concentration (drug 50 nM): 544.63 ± 38.3 pg/mL
HGF concentration (drug 50 nM): 13.65 ± 0.53 pg/mL
IFN alpha concentration (drug 50 nM): 0.26 ± 0 pg/mL
IFN gamma concentration (drug 50 nM): 28977.92 ± 7400.61 pg/mL
IL1RA concentration (drug 50 nM): 5840.44 ± 314.35 pg/mL
IL1 alpha concentration (drug 50 nM): 7.06 ± 0.37 pg/mL
IL1 beta concentration (drug 50 nM): 8.96 ± 0.43 pg/mL
IL2 concentration (drug 50 nM): 31.96 ± 1.47 pg/mL
IL4 concentration (drug 50 nM): 5.74 ± 1.1 pg/mL
IL5 concentration (drug 50 nM): 25.5 ± 1.65 pg/mL
IL6 concentration (drug 50 nM): 674.21 ± 27.15 pg/mL
IL7 concentration (drug 50 nM): 1.9 ± 0.12 pg/mL
IL8 concentration (drug 50 nM): 2862.21 ± 240.57 pg/mL
IL9 concentration (drug 50 nM): 4.13 ± 0.43 pg/mL
IL10 concentration (drug 50 nM): 0.85 ± 0.05 pg/mL
IL12p70 concentration (drug 50 nM): 1.68 ± 0.21 pg/mL
IL13 concentration (drug 50 nM): 2.73 ± 0.23 pg/mL
IL15 concentration (drug 50 nM): 2.71 ± 0.65 pg/mL
IL17A concentration (drug 50 nM): 4.09 ± 0.43 pg/mL
IL18 concentration (drug 50 nM): 153.4 ± 3.46 pg/mL
IL21 concentration (drug 50 nM): 2.45 ± 0.29 pg/mL
IL22 concentration (drug 50 nM): 8.9 ± 0^ pg/mL
IL23 concentration (drug 50 nM): 7.43 ± 0 pg/mL
IL27 concentration (drug 50 nM): 6.95 ± 0.83 pg/mL
IL31 concentration (drug 50 nM): 3.22 ± 0.38 pg/mL
IP-10/CXCL10 concentration (drug 50 nM): 3872.74 ± 295.01 pg/mL
LIF concentration (drug 50 nM): 67.89 ± 3.08 pg/mL
MCP1 concentration (drug 50 nM): 27471.13 ± 12271.13 pg/mL
MIP1 alpha concentration (drug 50 nM): 100.64 ± 4.66 pg/mL
MIP1 beta concentration (drug 50 nM): 318.84 ± 8.17 pg/mL
PDGF-BB concentration (drug 50 nM): 5.28 ± 0.18 pg/mL
PIGF-1 concentration (drug 50 nM): 53.92 ± 2.81 pg/mL
RANTES concentration (drug 50 nM): 198.35 ± 15.1 pg/mL
SCF concentration (drug 50 nM): 4.16 ± 0.18 pg/mL
SDF-1 alpha concentration (drug 50 nM): 3356.32 ± 136.22 pg/mL
TNF alpha concentration (drug 50 nM): 11776.9 ± 1658.47 pg/mL
TNF beta concentration (drug 50 nM): 4.13 ± 0.5 pg/mL
VEGF-A concentration (drug 50 nM): 1242.76 ± 50.39 pg/mL
VEGF-D concentration (drug 50 nM): 9.72 ± 0.75 pg/mL
bNGF concentration (drug 50 nM): 7.09 ± 0.71 pg/mL
BDNF concentration (drug 100 nM): 4.06 ± 0.26 pg/mL
EGF concentration (drug 100 nM): 1.56 ± 0.2 pg/mL
Eotaxin concentration (drug 100 nM): 10.09 ± 0.19 pg/mL
FGF-2 concentration (drug 100 nM): 20.42 ± 1.5 pg/mL
GM-CSF concentration (drug 100 nM): 133.06 ± 4.24 pg/mL
GRO alpha concentration (drug 100 nM): 568.49 ± 35.18 pg/mL
HGF concentration (drug 100 nM): 14.41 ± 0.55 pg/mL
IFN alpha concentration (drug 100 nM): 0.26 ± 0 pg/mL
IFN gamma concentration (drug 100 nM): 29276.66 ± 7697.74 pg/mL
IL1RA concentration (drug 100 nM): 5953.24 ± 309.78 pg/mL
IL1 alpha concentration (drug 100 nM): 7 ± 0.41 pg/mL
IL1 beta concentration (drug 100 nM): 8.66 ± 0.41 pg/mL
IL2 concentration (drug 100 nM): 31.33 ± 1.43 pg/mL
IL4 concentration (drug 100 nM): 5.78 ± 0.72 pg/mL
IL5 concentration (drug 100 nM): 26.52 ± 1.54 pg/mL
IL6 concentration (drug 100 nM): 643.8 ± 27.14 pg/mL
IL7 concentration (drug 100 nM): 2.12 ± 0.14 pg/mL
IL8 concentration (drug 100 nM): 2980.9 ± 173.36 pg/mL
IL9 concentration (drug 100 nM): 4.13 ± 0.43 pg/mL
IL10 concentration (drug 100 nM): 0.88 ± 0.06 pg/mL
IL12p70 concentration (drug 100 nM): 1.77 ± 0.18 pg/mL
IL13 concentration (drug 100 nM): 2.55 ± 0.33 pg/mL
